# Reference: ChEMBL document CHEMBL5291721, “A preclinical secondary pharmacology resource illuminates target-adverse drug reaction associations of marketed drugs” (Nat Commun, 2023)
# Tests used:
# [1] = target: T1, Muscarinic acetylcholine receptor M1 (Homo sapiens, UniProt P11229); type: functional
# T1 sequence (P11229 whole entry): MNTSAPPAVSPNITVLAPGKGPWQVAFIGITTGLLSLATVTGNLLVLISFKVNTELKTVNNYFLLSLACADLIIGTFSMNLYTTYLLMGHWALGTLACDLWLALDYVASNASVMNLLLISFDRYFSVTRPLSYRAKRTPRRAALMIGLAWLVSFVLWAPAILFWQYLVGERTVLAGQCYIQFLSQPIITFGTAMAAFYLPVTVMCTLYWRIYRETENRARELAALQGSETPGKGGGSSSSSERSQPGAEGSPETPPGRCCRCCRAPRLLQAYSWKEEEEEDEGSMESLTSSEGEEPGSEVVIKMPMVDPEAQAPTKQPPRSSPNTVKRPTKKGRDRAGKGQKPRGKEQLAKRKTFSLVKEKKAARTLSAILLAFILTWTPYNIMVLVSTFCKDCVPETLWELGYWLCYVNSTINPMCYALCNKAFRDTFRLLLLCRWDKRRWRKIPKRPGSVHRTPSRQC
# [2] = target: Cannabinoid receptor 1 (Homo sapiens, UniProt P21554); type: functional, cell-based
# Chain of Cannabinoid receptor 1 (P21554 whole entry): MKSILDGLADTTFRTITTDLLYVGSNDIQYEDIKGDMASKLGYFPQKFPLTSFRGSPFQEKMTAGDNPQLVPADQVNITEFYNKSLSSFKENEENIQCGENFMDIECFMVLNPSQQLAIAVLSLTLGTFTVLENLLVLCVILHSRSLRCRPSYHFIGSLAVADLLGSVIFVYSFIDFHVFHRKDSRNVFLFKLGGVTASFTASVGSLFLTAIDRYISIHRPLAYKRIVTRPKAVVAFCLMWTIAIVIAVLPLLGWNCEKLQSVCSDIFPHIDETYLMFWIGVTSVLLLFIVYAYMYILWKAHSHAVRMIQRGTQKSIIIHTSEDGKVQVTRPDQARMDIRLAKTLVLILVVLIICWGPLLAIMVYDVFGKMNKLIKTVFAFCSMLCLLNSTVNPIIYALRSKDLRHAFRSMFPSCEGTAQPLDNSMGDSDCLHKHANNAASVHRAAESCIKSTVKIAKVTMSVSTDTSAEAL
# [3] = target: T2, Endothelin-1 receptor (Homo sapiens, UniProt P25101)
# T2 sequence (P25101 whole entry): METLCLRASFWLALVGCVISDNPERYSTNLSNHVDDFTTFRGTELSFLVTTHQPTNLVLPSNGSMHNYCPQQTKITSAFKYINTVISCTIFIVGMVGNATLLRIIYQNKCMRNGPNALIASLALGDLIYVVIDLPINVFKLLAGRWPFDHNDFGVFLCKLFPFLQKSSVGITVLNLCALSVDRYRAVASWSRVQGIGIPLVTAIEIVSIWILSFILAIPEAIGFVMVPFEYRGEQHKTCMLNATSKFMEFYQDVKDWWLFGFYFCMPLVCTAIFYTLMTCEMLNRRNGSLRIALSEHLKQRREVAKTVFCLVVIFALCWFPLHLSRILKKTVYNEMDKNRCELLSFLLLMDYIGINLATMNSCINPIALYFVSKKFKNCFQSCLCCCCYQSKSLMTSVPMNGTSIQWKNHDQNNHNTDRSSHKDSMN
# [4] = target: Gamma-aminobutyric acid receptor subunit alpha-1 (Rattus norvegicus, UniProt P62813)
# Chain of Gamma-aminobutyric acid receptor subunit alpha-1 (P62813 whole entry): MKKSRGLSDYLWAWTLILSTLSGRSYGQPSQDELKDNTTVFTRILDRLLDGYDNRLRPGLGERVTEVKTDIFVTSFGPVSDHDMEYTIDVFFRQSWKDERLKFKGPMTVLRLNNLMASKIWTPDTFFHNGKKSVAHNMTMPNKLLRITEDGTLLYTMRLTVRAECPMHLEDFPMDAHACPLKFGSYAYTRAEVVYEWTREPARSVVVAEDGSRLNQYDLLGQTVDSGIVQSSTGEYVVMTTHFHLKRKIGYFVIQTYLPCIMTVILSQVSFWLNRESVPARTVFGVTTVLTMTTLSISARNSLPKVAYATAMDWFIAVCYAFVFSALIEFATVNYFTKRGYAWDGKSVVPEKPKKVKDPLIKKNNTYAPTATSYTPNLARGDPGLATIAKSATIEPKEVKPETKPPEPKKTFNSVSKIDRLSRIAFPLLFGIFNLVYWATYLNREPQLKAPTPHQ
# [5] = target: Histamine H1 receptor (Homo sapiens, UniProt P35367)
# Chain of Histamine H1 receptor (P35367 whole entry): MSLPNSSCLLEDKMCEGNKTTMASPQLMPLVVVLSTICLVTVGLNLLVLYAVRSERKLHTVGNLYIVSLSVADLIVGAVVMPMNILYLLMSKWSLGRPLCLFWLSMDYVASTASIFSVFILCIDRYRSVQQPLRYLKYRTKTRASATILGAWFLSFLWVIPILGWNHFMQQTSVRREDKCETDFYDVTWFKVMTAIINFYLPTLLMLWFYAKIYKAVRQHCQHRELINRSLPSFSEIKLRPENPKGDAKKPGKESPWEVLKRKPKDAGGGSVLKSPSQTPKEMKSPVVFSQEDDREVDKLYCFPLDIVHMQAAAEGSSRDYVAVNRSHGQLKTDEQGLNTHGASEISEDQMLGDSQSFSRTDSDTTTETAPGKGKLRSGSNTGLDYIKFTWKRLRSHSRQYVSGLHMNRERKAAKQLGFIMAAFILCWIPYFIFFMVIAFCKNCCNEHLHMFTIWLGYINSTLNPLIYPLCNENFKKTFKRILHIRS
# [6] = target: T3, 5-hydroxytryptamine receptor 1A (Homo sapiens, UniProt P08908); type: functional, cell-based
# T3 sequence (P08908 whole entry): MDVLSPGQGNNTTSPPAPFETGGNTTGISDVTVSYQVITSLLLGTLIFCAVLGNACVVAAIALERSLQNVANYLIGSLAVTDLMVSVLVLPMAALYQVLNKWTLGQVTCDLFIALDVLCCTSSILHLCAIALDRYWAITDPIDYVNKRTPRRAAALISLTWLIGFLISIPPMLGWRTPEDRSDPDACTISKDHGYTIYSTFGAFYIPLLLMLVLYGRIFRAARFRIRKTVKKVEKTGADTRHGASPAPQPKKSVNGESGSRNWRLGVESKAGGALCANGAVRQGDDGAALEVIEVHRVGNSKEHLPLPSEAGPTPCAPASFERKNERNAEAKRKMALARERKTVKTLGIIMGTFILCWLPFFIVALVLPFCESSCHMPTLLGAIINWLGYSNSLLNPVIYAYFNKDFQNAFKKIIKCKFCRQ
# [7] = target: T3, 5-hydroxytryptamine receptor 1A
# [8] = target: T4, Progesterone receptor (Homo sapiens, UniProt P06401)
# T4 sequence (P06401 whole entry): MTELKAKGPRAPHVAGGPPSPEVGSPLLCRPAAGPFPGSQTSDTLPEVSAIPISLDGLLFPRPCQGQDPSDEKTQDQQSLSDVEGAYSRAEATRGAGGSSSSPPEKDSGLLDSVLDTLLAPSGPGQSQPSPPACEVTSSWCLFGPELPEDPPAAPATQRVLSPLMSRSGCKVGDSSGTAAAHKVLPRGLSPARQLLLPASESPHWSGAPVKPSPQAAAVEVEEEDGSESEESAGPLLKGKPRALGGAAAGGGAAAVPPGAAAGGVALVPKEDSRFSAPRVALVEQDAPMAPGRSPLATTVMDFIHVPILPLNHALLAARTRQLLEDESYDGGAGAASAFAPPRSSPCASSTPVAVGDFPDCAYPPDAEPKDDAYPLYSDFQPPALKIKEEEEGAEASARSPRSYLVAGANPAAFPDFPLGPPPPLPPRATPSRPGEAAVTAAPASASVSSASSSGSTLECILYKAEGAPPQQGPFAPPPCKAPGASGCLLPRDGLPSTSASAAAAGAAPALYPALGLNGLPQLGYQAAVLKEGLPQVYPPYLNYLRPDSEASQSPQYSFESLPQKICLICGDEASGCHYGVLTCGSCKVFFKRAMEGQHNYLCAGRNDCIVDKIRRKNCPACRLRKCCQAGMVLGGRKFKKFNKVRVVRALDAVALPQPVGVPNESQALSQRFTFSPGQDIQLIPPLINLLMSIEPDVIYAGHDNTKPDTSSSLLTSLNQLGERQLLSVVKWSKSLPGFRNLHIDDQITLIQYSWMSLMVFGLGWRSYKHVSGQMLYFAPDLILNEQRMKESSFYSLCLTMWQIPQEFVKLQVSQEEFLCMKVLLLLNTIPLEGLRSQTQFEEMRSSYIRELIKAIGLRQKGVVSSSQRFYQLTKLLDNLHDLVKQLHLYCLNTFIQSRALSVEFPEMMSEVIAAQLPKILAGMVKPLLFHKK
# [9] = target: Prostaglandin G/H synthase 1 (Homo sapiens, UniProt P23219); type: functional
# Chain of Prostaglandin G/H synthase 1 (P23219 whole entry): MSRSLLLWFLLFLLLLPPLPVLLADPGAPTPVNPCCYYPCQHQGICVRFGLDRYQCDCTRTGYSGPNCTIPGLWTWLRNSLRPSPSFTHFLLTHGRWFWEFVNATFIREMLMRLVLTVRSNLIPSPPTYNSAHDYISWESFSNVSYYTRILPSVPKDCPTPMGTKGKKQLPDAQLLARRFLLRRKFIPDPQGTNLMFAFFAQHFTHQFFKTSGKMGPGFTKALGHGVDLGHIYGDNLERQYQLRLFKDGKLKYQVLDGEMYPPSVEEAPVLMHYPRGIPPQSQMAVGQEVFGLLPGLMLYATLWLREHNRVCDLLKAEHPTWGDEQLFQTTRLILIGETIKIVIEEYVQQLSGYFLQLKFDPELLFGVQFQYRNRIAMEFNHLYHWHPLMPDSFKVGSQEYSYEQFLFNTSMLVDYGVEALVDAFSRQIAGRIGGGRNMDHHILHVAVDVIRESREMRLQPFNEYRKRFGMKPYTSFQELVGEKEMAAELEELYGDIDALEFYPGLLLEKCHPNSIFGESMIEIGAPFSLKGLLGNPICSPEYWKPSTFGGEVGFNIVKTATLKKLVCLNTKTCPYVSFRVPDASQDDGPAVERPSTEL
# Note: assay procedure not described here.
AC50 [1] [µM],AC50 [2] [µM],AC50 [3] [µM],AC50 [4] [µM],AC50 [5] [µM],AC50 [6] [µM],Structure (SMILES),AC50 [7] [µM],AC50 [8] [µM],AC50 [9] [µM]
> 30,> 30,> 30,> 30,> 30,,Cc1nc([N+](=O)[O-])cn1-c1ccc([N+](=O)[O-])cc1 [NITREFAZOLE],,,
,> 30,> 30,,,> 3,C1CCC(C(CC2CCCCN2)C2CCCCC2)CC1 (configuration not stated) [PERHEXILINE],,,
> 30,> 30,> 30,> 30,> 30,,Nc1nc(NC2CC2)c2ncn([C@H]3C=C[C@@H](CO)C3)c2n1 [ABACAVIR],,,
,> 30,> 30,> 10,,> 10,CC1=C(C(=O)O)N2C(=O)[C@@H](NC(=O)[C@H](N)c3ccccc3)[C@H]2SC1 [CEPHALEXIN ANHYDROUS],,,
> 10,> 30,,> 10,> 10,> 10,CN1C(C(=O)Nc2ccccn2)=C(O)c2sc(Cl)cc2S1(=O)=O [LORNOXICAM],,,
> 10,,> 30,> 10,> 10,> 10,Clc1ccc2nsnc2c1NC1=NCCN1 [TIZANIDINE],,,
,> 30,> 30,> 10,,> 10,Cc1ccc(-c2cc(C(F)(F)F)nn2-c2ccc(S(N)(=O)=O)cc2)cc1 [CELECOXIB],,,
,> 10,> 30,> 10,,,CCCN1C[C@H](CSC)C[C@@H]2c3cccc4[nH]cc(c34)C[C@H]21 [PERGOLIDE],,,
,> 30,> 30,> 10,,> 10,CN(C)CCC(c1ccc(Cl)cc1)c1ccccn1 (configuration not stated) [CHLORPHENIRAMINE],,,
,> 30,> 30,> 30,,> 30,CCC(C)n1ncn(-c2ccc(N3CCN(c4ccc(OCC5COC(Cn6cncn6)(c6ccc(Cl)cc6Cl)O5)cc4)CC3)cc2)c1=O (configuration not stated) [ITRACONAZOLE],,,
> 10,> 30,,> 10,> 10,> 10,Nc1ccn([C@H]2CC[C@@H](CO)O2)c(=O)n1 [ZALCITABINE],,,
,> 30,> 30,> 10,,> 10,CCOC(=O)[C@H](CCc1ccccc1)N[C@@H](C)C(=O)N1[C@H](C(=O)O)C[C@@H]2CCC[C@@H]21,,,
> 30,> 30,> 30,> 30,> 30,,COc1cc2nc(N(C)CCCNC(=O)C3CCCO3)nc(N)c2cc1OC (configuration not stated) [ALFUZOSIN],,,

Structure (SMILES),AC50 [1] [µM],AC50 [2] [µM],AC50 [3] [µM],AC50 [4] [µM],AC50 [5] [µM],AC50 [6] [µM],AC50 [7] [µM],AC50 [8] [µM],AC50 [9] [µM]
Cc1c(C(=O)NN2CCCCC2)nn(-c2ccc(Cl)cc2Cl)c1-c1ccc(Cl)cc1 [RIMONABANT],> 30,,> 30,> 10,22,> 30,,,
c1ccc([C@H]2CN3CCSC3=N2)cc1 [LEVAMISOLE],,> 30,> 30,> 30,,> 30,,,
N[C@@H]1[C@H]2CN(c3nc4c(cc3F)c(=O)c(C(=O)O)cn4-c3ccc(F)cc3F)C[C@@H]12 [TROVAFLOXACIN],,> 30,> 30,,,> 30,,,
C[C@@H](O)[C@H]1C(=O)N2C(C(=O)O)=C(S[C@@H]3CN[C@H](C(=O)N(C)C)C3)[C@H](C)[C@H]12 [MEROPENEM],,> 300,> 300,> 10,,> 300,,,
CC[C@H]1[C@@H](O)[C@@H]2[C@H](CC[C@]3(C)[C@@H]([C@H](C)CCC(=O)O)CC[C@@H]23)[C@@]2(C)CC[C@@H](O)C[C@@H]12 [OBETICHOLIC ACID],> 30,> 30,> 30,> 30,> 30,,> 30,> 30,> 30
O=C(Cc1ccc(-c2ccccc2)cc1)Nc1ccccn1 [DIFENPIRAMIDE],> 30,> 30,,> 30,> 30,,> 30,> 30,> 30
